# Reference: PubChem BioAssay (NCI)
#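 All cell lines were grown in 96-well plates and treated with compound for 48 hours. TGI denotes the concentration required for complete inhibition of growth.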
# Assays:
# Test in all cases: DTP human tumour cell line panel, 48 h
# PC-3 prostate = test system: PC-3 prostate
# DU-145 prostate = test system: DU-145 prostate
# HS 578T breast = test system: HS 578T breast
# SNB-19 CNS = test system: SNB-19 CNS
# A549 NSCLC = test system: A549 NSCLC
# OVCAR-5 ovarian = test system: OVCAR-5 ovarian
# SF-539 CNS = test system: SF-539 CNS
# MDA-MB-435 = test system: MDA-MB-435
# SK-MEL-28 melanoma = test system: SK-MEL-28 melanoma
# NCI-H23 lung = test system: NCI-H23 lung
# SNB-75 CNS = test system: SNB-75 CNS
# NCI/ADR-RES ovarian = test system: NCI/ADR-RES ovarian
# HOP-62 NSCLC = test system: HOP-62 NSCLC
# OVCAR-3 ovarian = test system: OVCAR-3 ovarian
# ACHN renal = test system: ACHN renal
# U251 CNS = test system: U251 CNS
# CAKI-1 renal = test system: CAKI-1 renal
# HCT-15 colon = test system: HCT-15 colon
# COLO 205 colon = test system: COLO 205 colon
# MOLT-4 leukemia = test system: MOLT-4 leukemia
# SF-268 CNS = test system: SF-268 CNS
# IGROV1 ovarian = test system: IGROV1 ovarian
# NCI-H460 lung = test system: NCI-H460 lung
# T-47D breast = test system: T-47D breast
# NCI-H522 lung = test system: NCI-H522 lung
# LOX IMVI melanoma = test system: LOX IMVI melanoma
# M14 melanoma = test system: M14 melanoma
# HCC-2998 colon = test system: HCC-2998 colon
# SW-620 colon = test system: SW-620 colon
# SK-MEL-2 melanoma = test system: SK-MEL-2 melanoma
# NCI-H226 lung = test system: NCI-H226 lung
# HCT-116 colon = test system: HCT-116 colon
# SR leukemia = test system: SR leukemia
# HOP-92 NSCLC = test system: HOP-92 NSCLC
# EKVX NSCLC = test system: EKVX NSCLC
# A498 renal = test system: A498 renal
# BT-549 breast = test system: BT-549 breast
# MDA-N = test system: MDA-N
# UACC-62 melanoma = test system: UACC-62 melanoma
# MDA-MB-231 breast = test system: MDA-MB-231 breast
# 786-0 renal = test system: 786-0 renal
# TK-10 renal = test system: TK-10 renal
# OVCAR-8 ovarian = test system: OVCAR-8 ovarian
# OVCAR-4 ovarian = test system: OVCAR-4 ovarian
# HL-60(TB) leukemia = test system: HL-60(TB) leukemia
# RXF 393 renal = test system: RXF 393 renal
# MALME-3M melanoma = test system: MALME-3M melanoma
# CCRF-CEM leukemia = test system: CCRF-CEM leukemia
# SK-MEL-5 melanoma = test system: SK-MEL-5 melanoma
# SK-OV-3 ovarian = test system: SK-OV-3 ovarian
# UO-31 renal = test system: UO-31 renal
# MCF7 breast = test system: MCF7 breast
# SN12C renal = test system: SN12C renal
# SF-295 CNS = test system: SF-295 CNS
# HT29 colon = test system: HT29 colon
# UACC-257 melanoma = test system: UACC-257 melanoma
# KM12 colon = test system: KM12 colon
# K-562 leukemia = test system: K-562 leukemia
# RPMI-8226 leukemia = test system: RPMI-8226 leukemia
smiles,measurement,setting,value
COC(=O)/C(=N/NC(N)=O)C(C(=O)C(=O)Nc1ccc(C)cc1)c1nc2ccc(C(=O)c3ccccc3)cc2[nH]c1=O (stereo not given),TGI,PC-3 prostate,> 100 µM
same,TGI,DU-145 prostate,> 100 µM
same,TGI,HS 578T breast,> 100 µM
same,TGI,SNB-19 CNS,> 100 µM
same,TGI,A549 NSCLC,> 100 µM
same,TGI,OVCAR-5 ovarian,> 100 µM
same,TGI,SF-539 CNS,> 100 µM
same,TGI,MDA-MB-435,> 100 µM
same,TGI,SK-MEL-28 melanoma,> 100 µM
same,TGI,NCI-H23 lung,> 100 µM
same,TGI,SNB-75 CNS,> 100 µM
same,TGI,NCI/ADR-RES ovarian,> 100 µM
same,TGI,HOP-62 NSCLC,> 100 µM
same,TGI,OVCAR-3 ovarian,> 100 µM
same,TGI,ACHN renal,> 100 µM
same,TGI,U251 CNS,> 100 µM
same,TGI,CAKI-1 renal,> 100 µM
same,TGI,HCT-15 colon,> 100 µM
same,TGI,COLO 205 colon,> 100 µM
same,TGI,MOLT-4 leukemia,> 100 µM
same,TGI,SF-268 CNS,> 100 µM
same,TGI,IGROV1 ovarian,> 100 µM
same,TGI,NCI-H460 lung,> 100 µM
same,TGI,T-47D breast,> 100 µM
same,TGI,NCI-H522 lung,> 100 µM
same,TGI,LOX IMVI melanoma,> 100 µM
same,TGI,M14 melanoma,> 100 µM
same,TGI,HCC-2998 colon,> 100 µM
same,TGI,SW-620 colon,> 100 µM
same,TGI,SK-MEL-2 melanoma,> 100 µM
same,TGI,NCI-H226 lung,> 100 µM
same,TGI,HCT-116 colon,> 100 µM
same,TGI,SR leukemia,41.8 µM
same,TGI,HOP-92 NSCLC,> 100 µM
same,TGI,EKVX NSCLC,> 100 µM
same,TGI,A498 renal,89.6 µM
same,TGI,BT-549 breast,> 100 µM
same,TGI,MDA-N,> 100 µM
same,TGI,UACC-62 melanoma,> 100 µM
same,TGI,MDA-MB-231 breast,> 100 µM
same,TGI,786-0 renal,> 100 µM
same,TGI,TK-10 renal,> 100 µM
same,TGI,OVCAR-8 ovarian,> 100 µM
same,TGI,OVCAR-4 ovarian,> 100 µM
same,TGI,HL-60(TB) leukemia,> 100 µM
same,TGI,RXF 393 renal,> 100 µM
same,TGI,MALME-3M melanoma,> 100 µM
same,TGI,CCRF-CEM leukemia,> 100 µM
same,TGI,SK-MEL-5 melanoma,> 100 µM
same,TGI,SK-OV-3 ovarian,> 100 µM
same,TGI,UO-31 renal,> 100 µM
same,TGI,MCF7 breast,> 100 µM
same,TGI,SN12C renal,> 100 µM
same,TGI,SF-295 CNS,> 100 µM
same,TGI,HT29 colon,> 100 µM
same,TGI,UACC-257 melanoma,> 100 µM
same,TGI,KM12 colon,> 100 µM
C=CCN1C(N)=C(C#N)C(C#N)(C#N)C1CCC (stereo not given),TGI,PC-3 prostate,> 100 µM
same,TGI,DU-145 prostate,> 100 µM
same,TGI,HS 578T breast,> 100 µM
same,TGI,SNB-19 CNS,> 100 µM
same,TGI,A549 NSCLC,> 100 µM
same,TGI,OVCAR-5 ovarian,> 100 µM
same,TGI,SF-539 CNS,> 100 µM
same,TGI,MDA-MB-435,> 100 µM
same,TGI,NCI-H23 lung,> 100 µM
same,TGI,SNB-75 CNS,> 100 µM
same,TGI,NCI/ADR-RES ovarian,> 100 µM
same,TGI,HOP-62 NSCLC,> 100 µM
same,TGI,OVCAR-3 ovarian,> 100 µM
same,TGI,ACHN renal,> 100 µM
same,TGI,U251 CNS,> 100 µM
same,TGI,CAKI-1 renal,> 100 µM
same,TGI,HCT-15 colon,> 100 µM
same,TGI,COLO 205 colon,> 100 µM
same,TGI,MOLT-4 leukemia,> 100 µM
same,TGI,SF-268 CNS,> 100 µM
same,TGI,IGROV1 ovarian,> 100 µM
same,TGI,NCI-H460 lung,> 100 µM
same,TGI,T-47D breast,> 100 µM
same,TGI,NCI-H522 lung,> 100 µM
same,TGI,LOX IMVI melanoma,> 100 µM
same,TGI,K-562 leukemia,> 100 µM
same,TGI,M14 melanoma,> 100 µM
same,TGI,HCC-2998 colon,> 100 µM
same,TGI,SW-620 colon,> 100 µM
same,TGI,SK-MEL-2 melanoma,> 100 µM
same,TGI,NCI-H226 lung,> 100 µM
same,TGI,HCT-116 colon,> 100 µM
same,TGI,SR leukemia,> 100 µM
same,TGI,RPMI-8226 leukemia,> 100 µM
same,TGI,HOP-92 NSCLC,> 100 µM
same,TGI,EKVX NSCLC,> 100 µM
same,TGI,A498 renal,> 100 µM
same,TGI,BT-549 breast,> 100 µM
same,TGI,MDA-N,> 100 µM
same,TGI,UACC-62 melanoma,> 100 µM
same,TGI,MDA-MB-231 breast,> 100 µM
same,TGI,786-0 renal,> 100 µM
same,TGI,TK-10 renal,> 100 µM
same,TGI,OVCAR-8 ovarian,> 100 µM
same,TGI,OVCAR-4 ovarian,> 100 µM
same,TGI,HL-60(TB) leukemia,> 100 µM
same,TGI,RXF 393 renal,> 100 µM
same,TGI,MALME-3M melanoma,> 100 µM
same,TGI,CCRF-CEM leukemia,> 100 µM
same,TGI,SK-MEL-5 melanoma,> 100 µM
same,TGI,SK-OV-3 ovarian,> 100 µM
same,TGI,UO-31 renal,> 100 µM
same,TGI,MCF7 breast,> 100 µM
same,TGI,SN12C renal,> 100 µM
same,TGI,SF-295 CNS,> 100 µM
same,TGI,HT29 colon,> 100 µM
same,TGI,UACC-257 melanoma,> 100 µM
same,TGI,KM12 colon,> 100 µM
